Measurements reported in ChEMBL document CHEMBL1155519, “Discovery of N-phenyl-4-(thiazol-5-yl)pyrimidin-2-amine aurora kinase inhibitors” (J Med Chem, 2010).
Activity calls are given as the source filed them. The calls are words filed in the database; no cut-off is given here.

What was measured:
Cytochrome P450 2C19 = Cytochrome P450 2C19 (Homo sapiens, UniProt P33261); test: Inhibition of human recombinant CYP2C19 at 5 uM; assay type: ADME; settings: recombinant enzyme
NCI-H460 [1] = test: Antitumor activity against human NCI-H460 cells xenografted in athymic mouse assessed as reduction in tumor volume at 75 mg/kg, po administered QD on day 1 after implantation for 5 days; assay type: functional, organism-based; parameters: dose 75 mg/kg
SW-620 = test: Induction of apoptosis in human SW620 cells assessed as early apoptotic cells at 1 uM after 24 hrs by TUNEL assay; assay type: functional
Mus musculus = test: Toxicity in athymic mouse xenografted with human NCI-H460 cells assessed as body weight loss at 100 mg/kg, po administered QD on day 1 after implantation for 5 days measured on day 13; assay type: organism-based; parameters: dose 100 mg/kg, route oral; settings: in vivo, 120 h
HeLa = test: Inhibition of Aurora kinase in human HeLa cells assessed as complete inhibition of histone H3 phosphorylation at 1.25 uM after 7 hrs by Western blot analysis; assay type: cell-based
A549 = test: Cell cycle arrest in asynchronous human A549 cells assessed as accumulation of cyclin B1-negative tetraploid cells at G1 phase at 0.5 to 2 uM after 7 hrs by FACS analysis; assay type: functional, cell-based
[2] = Dissociation constant, pKa by pH-metric titration method; assay type: physicochemical
[3] = Clearance in Wistar rat at 10 mg/kg, po after 24 hrs by LC/MS/MS analysis; assay type: ADME, organism-based; parameters: dose 10 mg/kg, route oral; settings: in vivo
[4] = Inhibition of CK2
Cytochrome P450 2D6 = Cytochrome P450 2D6 (Homo sapiens, UniProt P10635); test: Inhibition of human recombinant CYP2D6 at 5 uM; assay type: ADME; settings: recombinant enzyme
Sequence of Cytochrome P450 2D6 (P10635 whole entry): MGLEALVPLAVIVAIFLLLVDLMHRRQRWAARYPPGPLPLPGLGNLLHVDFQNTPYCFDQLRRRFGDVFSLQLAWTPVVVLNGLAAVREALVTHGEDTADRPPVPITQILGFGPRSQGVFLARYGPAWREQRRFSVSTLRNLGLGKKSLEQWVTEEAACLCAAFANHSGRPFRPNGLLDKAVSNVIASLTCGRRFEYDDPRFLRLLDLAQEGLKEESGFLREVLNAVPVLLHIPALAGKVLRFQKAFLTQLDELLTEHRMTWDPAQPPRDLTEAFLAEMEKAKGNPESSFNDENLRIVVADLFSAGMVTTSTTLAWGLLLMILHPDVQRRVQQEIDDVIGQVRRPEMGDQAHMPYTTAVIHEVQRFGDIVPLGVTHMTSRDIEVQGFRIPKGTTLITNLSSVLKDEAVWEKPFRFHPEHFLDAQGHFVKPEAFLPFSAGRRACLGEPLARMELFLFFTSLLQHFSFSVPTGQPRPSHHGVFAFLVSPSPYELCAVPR

HL-60 = test: Cytotoxicity against human HL60 cells after 96 hrs by MTT assay; assay type: functional, cell-based; settings: HL-60, 96 h
[5] = Apparent permeability across human Caco-2 cell membrane; assay type: ADME, cell-based
BXPC-3 = test: Cytotoxicity against human BxPC3 cells after 96 hrs by MTT assay; assay type: functional, cell-based; settings: BXPC-3, 96 h
NCI-H460 [6] = test: Antitumor activity against human NCI-H460 cells xenografted in athymic mouse assessed as reduction in tumor volume at 100 mg/kg, po administered QD on day 1 after implantation for 5 days; assay type: functional, organism-based; parameters: dose 100 mg/kg
[7] = Antitumor activity against mouse P388D1 cells xenografted in BALB/c mouse assessed as increase in life span at 67 mg/kg, po administered BID on days 1-3 and 7-9 after tumor implantation relative to control
MCF7 = test: Cytotoxicity against human MCF7 cells after 96 hrs by MTT assay; assay type: functional, cell-based; settings: MCF7, 96 h
[8] = Antitumor activity against mouse P388D1 cells xenografted in BALB/c mouse assessed as increase in life span at 45 mg/kg, po administered BID on days 1-3 and 7-9 after tumor implantation relative to control
[9] = Half life in rat liver microsomes by LC/MS/MS analysis; assay type: ADME, Microsome
[10] = Inhibition of PKA
HCT-116 = test: Cytotoxicity against human HCT116 cells after 96 hrs by MTT assay; assay type: functional, cell-based; settings: HCT-116, 96 h
[11] = Oral bioavailability in Wistar rat at 10 mg/kg after 24 hrs by LC/MS/MS analysis; assay type: ADME, organism-based; settings: in vivo
[12] = Cytotoxicity against human MESSA cells after 96 hrs by MTT assay; assay type: functional, cell-based; settings: MES-SA
NCI-H460 [13] = test: Antitumor activity against human NCI-H460 cells xenografted in athymic mouse assessed as reduction in mean tumor volume at 100 mg/kg, po administered QD on day 1 after implantation for 5 days measured on day 6 relative to control; assay type: functional; parameters: scale not given: the % may be the effect or the level left
MV4-11 = test: Cytotoxicity against human MV4-11 cells after 96 hrs by MTT assay; assay type: functional, cell-based; settings: MV4-11, 96 h
[14] = AUC (0 to 24 hrs) in Wistar rat at 10 mg/kg, po after 24 hrs by LC/MS/MS analysis; assay type: ADME, organism-based; parameters: time < 24 hr, dose 10 mg/kg, route oral; settings: plasma
Cytochrome P450 2C9 = Cytochrome P450 2C9 (Homo sapiens, UniProt P11712); test: Inhibition of human recombinant CYP2C9 at 5 uM; assay type: ADME; settings: recombinant enzyme
Sequence of Cytochrome P450 2C9 (P11712 whole entry): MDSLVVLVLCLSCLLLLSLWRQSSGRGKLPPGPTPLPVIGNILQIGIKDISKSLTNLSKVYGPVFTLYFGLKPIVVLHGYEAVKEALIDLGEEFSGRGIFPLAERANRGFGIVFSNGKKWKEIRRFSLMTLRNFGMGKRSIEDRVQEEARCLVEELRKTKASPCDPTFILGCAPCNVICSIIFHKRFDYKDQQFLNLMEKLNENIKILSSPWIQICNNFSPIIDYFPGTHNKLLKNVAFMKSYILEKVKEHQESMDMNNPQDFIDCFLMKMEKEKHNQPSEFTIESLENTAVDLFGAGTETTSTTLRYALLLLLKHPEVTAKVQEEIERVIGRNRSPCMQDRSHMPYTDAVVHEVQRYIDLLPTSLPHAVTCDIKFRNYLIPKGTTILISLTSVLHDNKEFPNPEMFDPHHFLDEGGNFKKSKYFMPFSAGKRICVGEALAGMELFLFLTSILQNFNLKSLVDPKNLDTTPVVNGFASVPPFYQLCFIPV

Cytochrome P450 1A = Cytochrome P450 1A (Homo sapiens, UniProt P04798+P05177); test: Inhibition of CYP1A in human hepatocyte at 1 uM; assay type: ADME, cell-based; settings: hepatocytes

Sequence of Cytochrome P450 2C19 (P33261 whole entry): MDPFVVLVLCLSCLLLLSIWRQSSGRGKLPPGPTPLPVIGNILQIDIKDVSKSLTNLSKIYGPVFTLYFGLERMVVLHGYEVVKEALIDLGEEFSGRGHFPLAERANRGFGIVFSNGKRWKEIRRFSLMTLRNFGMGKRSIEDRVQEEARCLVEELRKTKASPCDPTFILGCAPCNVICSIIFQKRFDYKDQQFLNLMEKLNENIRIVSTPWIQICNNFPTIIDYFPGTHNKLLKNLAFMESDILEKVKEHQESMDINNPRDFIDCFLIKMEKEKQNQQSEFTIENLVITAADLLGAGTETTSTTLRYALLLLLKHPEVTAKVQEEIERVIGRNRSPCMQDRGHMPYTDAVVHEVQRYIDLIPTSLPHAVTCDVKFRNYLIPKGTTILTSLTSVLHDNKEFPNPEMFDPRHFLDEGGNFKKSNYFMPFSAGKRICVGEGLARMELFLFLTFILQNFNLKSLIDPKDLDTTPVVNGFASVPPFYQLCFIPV

With `Cc1nc(N)sc1-c1ccnc(Nc2ccc(N3CCOCC3)cc2)n1` [CYC-116] the “inhibition (INH)” value (Cytochrome P450 2C19) was “Active”, the Activity (NCI-H460 [1]) was “Active” and the Activity (SW-620) was 91%. For the same compound, the Activity (Mus musculus) was “Non-toxic”, the inhibition (HeLa) was “Active” and the Activity (A549) was “Active”. It also gave a pKa [2] of 4.4, a CL/F [3] of 33.3 mL/min/kg and a Ki [4] greater than 10 µM. For the same compound, the “inhibition (INH)” value (Cytochrome P450 2D6) was “Active”, the IC50 (HL-60) was 372 nM and the Papp [5] was 47 ×10⁻⁶ cm/s. For the same compound, the IC50 (BXPC-3) was 1630 nM, the Activity (NCI-H460 [6]) was “Active” and the Activity [7] was 183%. The IC50 (MCF7) was 599 nM, the Activity [8] was 172% and the half-life [9] was 32.8 min. The Ki [10] was greater than 10 µM, the IC50 (HCT-116) was 340 nM and the bioavailability [11] was 38%. The IC50 [12] was 90 nM, the Activity (NCI-H460 [13]) was 40% and the IC50 (MV4-11) was 34 nM. The AUC(0-t) at 24 h [14] was 13.6 µM·h, the “inhibition (INH)” value (Cytochrome P450 2C9) was “Active” and the “inhibition (INH)” value (Cytochrome P450 1A) was “Not Active”.
